Tests used:
MRC-5 cells = test: Sulforhodamine B (SRB) cytotoxicity assay; assay type: cell-based, human; conditions: Homo sapiens, MRC5, 72 h
Experimental: (§1) Fig. 6 Selective inhibition of PARG by xanthine derivative JA2131. a Clonogenic survival assays of PC3, MDA-MB-231, and MCF-7 cells treated with PARGi. Cells were treated with either DMSO or 10 µM JA2131 for 2 h, irradiated with 3 Gy (MDA-MB-231 and MCF-7), 7 Gy (PC3) IR and grown for ~2 weeks, then colonies were fixed with methanol and stained with crystal violet. The results of three independent experiments are shown. Error bars = the standard error of the mean (SEM). b dose-response of JA2131 in MDA-MB-231 cells with and without IR. Cells were treated with designated concentrations of JA2131 for 2 h and then either left untreated or exposed to 3 Gy IR and allowed to recover for 1 h before lysis. Total protein was immunoblotted with anti-PAR antibody (upper panel), stripped and reprobed with anti-PCNA as a loading control. c MDA-MB-231 cells with stable scrambled shRNA (WT) or stable PARG shRNA, knockdown (KD), were treated with 5 μM JA2131 for 2 h, lysed and then total lysates were immunoblotted for anti-PAR (upper panel) followed by anti-PARG (upper middle panel), anti-PARP1 (lower middle panel) and anti-actin (bottom panel) antibody. […] Stable cells with scramble shRNA (control) and shPARG (PARG-KD) cells were treated with an increasing concentration of JA2131 for growth inhibitory IC50 determination. The data was normalized against 100% survival at the lowest inhibitor concentration. Error bars show the percent coefficient of variation. Equivalent concentrations of DMSO were used as a negative control. e The cytotoxicity of JA2131 along with PDD, Veliparib and Doxorubicin against MRC-5 cells. Error bars show the percent coefficient of variation. f CETSA for in-cell JA2131 target engagement. Normalized anti-PARG western blot intensities of three independent experiments were fitted as above and the estimated aggregation temperature (Tagg) is shown in the tabulated insert. Source Data are provided as a Source Data file.

[1] = Sulforhodamine B (SRB) cytotoxicity assay; assay type: cell-based, human; conditions: human; for viability at 72 h, 25 µM: log concentration μM 1.39794
Experimental: as §1

HeLa cells = test: DNA fiber assay, replication fork progression; assay type: cell-based, human; conditions: JA2131 10 µM
Source text: Normalized % viabilities are plotted against log concentration. Error bars show the percent coefficient of variation. […] Mann-Whitney test was used to generate the p-value. The DNA spread assay is the representation of two independently repeated experiments. Source Data are provided as a Source Data file.

PC3 cells = test: Sulforhodamine B (SRB) cytotoxicity assay; conditions: Homo sapiens, PC-3, 72 h
[2] = Sulforhodamine B (SRB) cytotoxicity assay; conditions: human, PC3 cells, Viability; for viability at 72 h, 1.95 µM: log [concentration] μM 0.291; for viability at 72 h, 3.9 µM: log [concentration] μM 0.592; for viability at 72 h, 7.8 µM: log [concentration] μM 0.893; for viability at 72 h, 15.6 µM: log [concentration] μM 1.194; for viability at 72 h, 31.3 µM: log [concentration] μM 1.495; for viability at 72 h, 62.5 µM: log [concentration] μM 1.796; for viability at 72 h, 125 µM: log [concentration] μM 2.097; for viability at 72 h, 250 µM: log [concentration] μM 2.398; for viability at 72 h, 500 µM: log [concentration] μM 2.699; for viability at 72 h, 0.98 µM: log [concentration] μM -0.01; for viability at 72 h, 0.49 µM: log [concentration] μM -0.312; for viability at 72 h, 0.244 µM: log [concentration] μM -0.613
[3] = tested on: MDA-MB-231 cells with scrambled shRNA (control); test: Cellular PARylation, anti-PAR immunoblot; assay type: cell-based, human
Experimental: as §1
Thus, dose-dependent JA2131-induced cellular PARylation with and without IR was investigated. For combined IR treatment, MDA-MB-231 cells were treated with JA2131 for 2 h, followed by […] X-ray and then allowed to recover for an hour before cellular extraction and western blotting analysis.
Using shRNA, next, we generated a stable MDA-MB-231 PARG knockdown (PARG-KD) cell-line (Supplementary Fig. 10). We compared PARGi JA2131-induced PARylation in PARG-KD and control cells. We reasoned that PARG-KD cells would show a reduced response to a selective PARGi as the stable PARG-KD cells would have to adopt a PARG-independent survival mechanism. MDA-MB-231 control cells and PARG-KD cells were treated with JA2131, then total cell lysates were subjected to immunoblotting with anti-PAR antibody, followed by immunodetection for anti-PARG, PARP1 and Actin antibody (Fig. 6c). […] Dose-response curves comparing control and PARG-KD cells further validate the selective action of JA2131 on control cells expressing PARG, but not on the PARG-KD cells (Supplementary Fig. 12).
Cells were grown in 6-well plates and 10 cm dishes, treated with PARGi for 2 h, irradiated and recovered for 1 h before harvesting. Cells were irradiated, ranging from 1 to 10 Gy using RAD SOURCE, RS-2000, Biological System, RadSource.com. Cells were washed with phosphate buffer and saline (PBS) and lysed with buffer containing 50 mM Hepes, pH 7.5, 1% (vol/vol) igepal-C630, 1 mg/ml bacitracin, 1 mM EDTA, 10 mM NaF, 1 mM sodium orthovanadate, 10% (vol/vol) glycerol, 50 mM NaCl, 1 mM PMSF, and Protease Inhibitor Cocktail Set III (EMD Millipore). The detergent-soluble fraction was used for western blotting. Cell fractionation was carried out using the Subcellular Protein Fractionation Kit, (#78840, ThermoFisher) according to the manufacturer’s instruction. Primary antibodies were purchased from the following sources; Actin, GAPDH, γH2AX and Histone-H3 was from Cell Signaling Technology. H2AX and LAMB1 were from Invitrogen/ThermoFisher. […]

Cn1c(=S)c2[nH]c(SCCN3CCOCC3)nc2n(C)c1=O [JA2131]
IC50 (MRC-5 cells): 132 ± 35.9 µM | viability at 72 h, 25 µM ([1]; MDA-MB-231 cells with stable PARG shRNA knockdown (PARG-KD), 72 h): 80.4% | viability at 72 h, 50 µM ([1]; MDA-MB-231 cells with stable PARG shRNA knockdown (PARG-KD), log concentration μM 1.69897, 72 h): 70.2% | viability at 72 h, 25 µM ([1]; MDA-MB-231 control cells with stable scramble shRNA): 17% | viability at 72 h, 1.95 µM ([1]; MRC-5 cells, log [concentration] μM 0.29): 98.4% | viability at 72 h, 3.89 µM ([1]; MRC-5 cells, log [concentration] μM 0.59): 99.3% | viability at 72 h, 7.76 µM ([1]; MRC-5 cells, log [concentration] μM 0.89): 98.5% | viability at 72 h, 15.5 µM ([1]; MRC-5 cells, log [concentration] μM 1.19): 100% | viability at 72 h, 30.9 µM ([1]; MRC-5 cells, log [concentration] μM 1.49): 91.9% | viability at 72 h, 63.1 µM ([1]; MRC-5 cells, log [concentration] μM 1.8): 79.9% | viability at 72 h, 126 µM ([1]; MRC-5 cells, log [concentration] μM 2.1): 61.4% | viability at 72 h, 251 µM ([1]; MRC-5 cells, log [concentration] μM 2.4): 28.2% | viability at 72 h, 501 µM ([1]; MRC-5 cells, log [concentration] μM 2.7): 20.4% | viability at 72 h, 0.977 µM ([1]; MRC-5 cells, log [concentration] μM -0.01): 93.5% | viability at 72 h, 0.49 µM ([1]; MRC-5 cells, log [concentration] μM -0.31): 100% | viability at 72 h, 0.245 µM ([1]; MRC-5 cells, log [concentration] μM -0.61): 100% | average IdU tract (HeLa cells; 2 h pretreatment, no genotoxic stress): 6.0 μm | average IdU tract length (HeLa cells; low-dose hydroxyurea): 5.0 μm | IC50 (PC3 cells; with 7 Gy IR): 41.6 ± 3 µM | IC50 (PC3 cells; without IR): 33 ± 2.4 µM | viability at 72 h, 1.95 µM ([2]; +IR 7 Gy): 104% | viability at 72 h, 3.9 µM ([2]; +IR 7 Gy): 99.5% | viability at 72 h, 7.8 µM ([2]; +IR 7 Gy): 103% | viability at 72 h, 15.6 µM ([2]; +IR 7 Gy): 96.6% | viability at 72 h, 31.3 µM ([2]; +IR 7 Gy): 76.7% | viability at 72 h, 62.5 µM ([2]; +IR 7 Gy): 32.5% | viability at 72 h, 125 µM ([2]; +IR 7 Gy): 13.6% | viability at 72 h, 250 µM ([2]; +IR 7 Gy): 16.8% | viability at 72 h, 500 µM ([2]; +IR 7 Gy): 13% | viability at 72 h, 0.98 µM ([2]; +IR 7 Gy): 102% | viability at 72 h, 0.49 µM ([2]; +IR 7 Gy): 100% | viability at 72 h, 0.244 µM ([2]; +IR 7 Gy): 100% | viability at 72 h, 1.95 µM ([2]; without IR): 97.5% | viability at 72 h, 3.9 µM ([2]; without IR): 97.3% | viability at 72 h, 7.8 µM ([2]; without IR): 94.1% | viability at 72 h, 15.6 µM ([2]; without IR): 88.1% | viability at 72 h, 31.3 µM ([2]; without IR): 57.2% | viability at 72 h, 62.5 µM ([2]; without IR): 6.73% | viability at 72 h, 125 µM ([2]; without IR): 4.07% | viability at 72 h, 250 µM ([2]; without IR): 4.3% | viability at 72 h, 500 µM ([2]; without IR): 4.21% | viability at 72 h, 0.98 µM ([2]; without IR): 99.2% | viability at 72 h, 0.49 µM ([2]; without IR): 98.7% | viability at 72 h, 0.244 µM ([2]; without IR): 100% | anti-PAR western blot band, Normalized ([3]; 5 μM JA2131 2 h, Ci-DMSO = 1): 6.313 | anti-PAR western blot band, Intensity inversion ([3]; 5 μM JA2131 2 h, ImageJ): 0.006671 | anti-PAR western blot band, Neg. substracted ([3]; 5 μM JA2131 2 h, ImageJ): 0.001364 | anti-PAR western blot band, mean int. ([3]; 5 μM JA2131 2 h, ImageJ): 149.9 | PAR accumulation after treatment ([3]; 5 μM, 2 h): a measurable increase in PAR | cellular PARylation ([3]; JA2131 2 h combined with IR, 1 h recovery): massive increase in cellular PARylation at 100 nM | cellular PARylation ([3]; JA2131 alone, 2 h): dose-dependent increase in cellular PARylation between 1 μM and 5 μM doses
